# Measured values from patent US20260224554A1, “OBEFAZIMOD FOR TREATMENT OF ULCERATIVE COLITIS” (ABIVAX, priority 2023, published 2026).
# Test system: subjects with Moderate to Severe Active Ulcerative Colitis
# Assay: Follow-up Phase II open-label long-term study of ABX464 25 mg QD (ABX464-108), interim analysis
# Format: in vivo, human
# Experimental: • The primary objective of the study is to evaluate the long-term safety of ABX464 given at 25 mg once daily in subjects with Moderate to Severe Active Ulcerative Colitis • Number of Adverse Events (AEs) in ABX464 treated subjects
# The secondary objectives are: • To evaluate the long-term effect of ABX464 on clinical remission; • Percentage of subjects reaching clinical remission at yearly visits. • To evaluate the long-term effect of ABX464 on endoscopic remission; • Percentage of subjects reaching endoscopic remission at yearly visits. • To evaluate the long-term effect of ABX464 on clinical response; • Percentage of subjects reaching clinical response at yearly visits. • To evaluate the long-term effect of ABX464 on endoscopic improvement; • Percentage of subjects reaching endoscopic improvement at yearly visits. • To evaluate the long-term effect of ABX464 on inflammatory markers (C-reactive protein (CRP), calprotectin); • The change from Baseline in CRP and fecal calprotectin levels. • To evaluate the safety profile of ABX464; • Number and rate of all AEs and causally-related AEs, all Serious Adverse Events (SAEs) and causally-related SAEs, all AEs of Special Interest (AESIs) and causally-related AESIs, classified by severity; • Incidence of AEs leading to investigational medicinal product discontinuation; • The number of clinically-significant laboratory abnormalities. • To evaluate the effect of ABX464 on miR-124 expression in total blood at every timepoint defined in the schedule of assessment. • Change relative to baseline in miRNA-124 expression in total blood at every defined timepoint.
# For the purpose of the study, the following definitions will be applied: • Clinical remission based on the Mayo Scoring system, is defined as stool frequency subscore=0 or 1 and rectal bleeding subscore=0 and endoscopy subscore=0 or 1 (modified to exclude friability). • Clinical Response is defined as a reduction from baseline in modified Mayo Score of at least 2 points and greater than or equal to 30 percent from baseline with an accompanying decrease in rectal bleeding sub-score of greater than or equal to 1 point or absolute rectal bleeding sub-score of less than or equal to 1 point. • Endoscopic remission defined as a Mayo endoscopic sub score of 0. • Endoscopic improvement is defined as a Mayo endoscopic sub score of ≤1 (excluding friability).
# This study is an open-label study aiming at evaluating the long-term safety and the efficacy profile of ABX464 given once a day (QD) at 25 mg in subjects who have been previously enrolled in the ABX464-102 or ABX464-104 studies (OLE and maintenance studies) and who are willing to continue their treatment.
# All subjects will receive ABX464 given at 25 mg QD.
# Subjects will be treated with ABX464 for a maximum period of 54 months. Subjects will be followed up quarterly. After the treatment period, subjects will be followed for 4 additional weeks for safety purposes.
# A subject will be eligible to participate in this study if ALL the following criteria are met: • 1. Subjects who previously completed the ABX464-102 or ABX464-104 clinical studies; • 2. Subjects should be in endoscopic improvement with a rectal bleeding sub-score=0 point at the end of treatment period in the previous study (ABX464-102 or ABX464-104). Endoscopic improvement is defined as: a Mayo endoscopic sub score of ≤1; • 3. Subjects able and willing to comply with study visits and procedures; • 4. […]
structure (smiles),measurement,setting,value
"FC(F)(F)Oc1ccc(Nc2ccc3cccc(Cl)c3n2)cc1 [Obefazimod, 8-chloro-N-[4-(trifluoromethoxy)phenyl]quinolin-2-amine]",Durability of efficacy (MMS evaluation),25 mg QD in patients who achieved endoscopic improvement after 2-4 years of exposure to 50 mg,continues to have durable efficacy
same,Proportion of patients with Fecal Calprotectin <250 microgm/gm,63 patients who completed 48-week treatment with 25 mg QD,93%
same,Disease control Rate (Stable+improved MMS),"63 patients who completed 48-week treatment with 25 mg QD, after 2-4 years of 50 mg in ABX464-102/-104",84.1%
same,New safety signals,UC patients treated for up to 5 years,no new safety signals
same,Patients withdrawn due to AE,"of 74 patients analyzed, 48-week treatment with 25 mg QD",2 patients
